In US20060189566A1, “Muscle building agent and preventive or remedy for muscle weakening” (priority 2003, published 2006):

Key:
soleus muscle [1] = assay: Wet weight of soleus muscle (absolute, atrophy rate, per body weight) in cast-immobilized rats; assay type: in vivo, rat; conditions: mean ± SD; for Wet Weight of Soleus Muscle, Immobilized / Wet Weight of Soleus Muscle per Body Weight, Immobilized: immobilized leg; for Wet Weight of Soleus Muscle, Immobilized / Wet Weight of Soleus Muscle, Non-immobilized: 1 wt % CDP-choline feed; for Wet Weight of Soleus Muscle, Non-immobilized / Wet Weight of Soleus Muscle per Body Weight, Non-immobilized: non-immobilized leg
Procedure: (§1) As test animals, 13 female 9-week-old rats of Fischer 344 strain (purchased from SLC Inc.) were used. The rats were preliminarily bred for 3 days in a chamber in which the temperature was adjusted to 22° C. under a bright-dark cycle where 07:00 to 19:00 was the bright period, and access to water and feed was ad libitum. After the preliminary breeding, the rats were divided into two groups, and a control feed was given to a control group consisting of 7 rats while a feed comprising CDP-choline (manufactured by Kyowa Hakko Kogyo Co., Ltd.) having the composition shown in Table 1 (hereinafter referred to as a CDP-choline feed) was given to the other group consisting of 6 rats for one day. Then, the right hind limb of each rat was immobilized in plaster cast under anesthesia with pentobarbital, followed by further feeding for one week under the above conditions. Thereafter, the rats were subjected to analysis with regard to the items shown below. In the test, two muscles, i.e., plantar muscle and soleus muscle located at the lower hind limbs of a rat, were used. Soleus muscle is a representative slow skeletal muscle in lower limbs where 80 to 90% of total muscle fibers are slow muscle fibers, and plantar muscle is a typical fast skeletal muscle where about 95% of total muscle fibers are fast muscle fibers. The rat was killed after body weight measurement, and the soleus muscle and plantar muscle of both the right and left lower hind limbs were quickly excised and washed with a physiological saline solution. After extraneous connective tissues, tendons, nerves, etc. were removed, the muscle wet weights of soleus muscle and plantar muscle were measured. The relative wet weight of muscle immobilized in a cast was determined for each rat based on the wet weight of muscle which was not immobilized in a cast, taken as 100, and the decrease in muscle weight was expressed as the atrophy rate. The wet weight of muscle relative to body weight was calculated by measuring the wet weight of both right and left soleus muscles and plantar muscles and dividing the obtained value by body weight. The wet weight of muscle per body weight excludes the influence of the difference in body weight on each muscle wet weight and reflects the muscle amount per body weight. The wet weight of soleus muscle per body weight is shown in Table 7, and the wet weight of plantar muscle per body weight is shown in Table 8.

plantar muscle = assay: Wet weight of plantar muscle (absolute, atrophy rate, per body weight) in cast-immobilized rats; assay type: in vivo, rat; conditions: mean ± SD; for Atrophy Rate (plantar muscle): decrease of immobilized muscle wet weight relative to non-immobilized taken as 100; for Wet Weight of Plantar Muscle, Immobilized / Wet Weight of Plantar Muscle per Body Weight, Immobilized: immobilized leg
Procedure: as §1

soleus muscle [2] = assay: Protein content of soleus muscle in cast-immobilized rats; assay type: in vivo, rat; conditions: mean ± SD; for Protein Content of Soleus Muscle, Non-immobilized: non-immobilized leg
Procedure: As test animals, 13 female 9-week-old rats of Fischer 344 strain (purchased from SLC Inc.) were used. The rats were preliminarily bred for 3 days in a chamber in which the temperature was adjusted to 22° C. under a bright-dark cycle where 07:00 to 19:00 was the bright period, and access to water and feed was ad libitum. After the preliminary breeding, the rats were divided into two groups, and a control feed was given to a control group consisting of 7 rats while a feed comprising CDP-choline (manufactured by Kyowa Hakko Kogyo Co., Ltd.) having the composition shown in Table 1 (hereinafter referred to as a CDP-choline feed) was given to the other group consisting of 6 rats for one day. Then, the right hind limb of each rat was immobilized in plaster cast under anesthesia with pentobarbital, followed by further feeding for one week under the above conditions. Thereafter, the rats were subjected to analysis with regard to the items shown below. Soleus muscle was finely cut in a 1.15% potassium chloride solution and a homogenate thereof was prepared using a glass homogenizer. After the homogenate was appropriately diluted, its protein content was measured using the Protein Assay Kit of Biorad. A calibration curve was prepared using a 2 mg/ml BSA solution.

soleus muscle [3] = assay: Degradation rate of muscle plasma protein of soleus muscle (tyrosine release); assay type: in vivo, rat; conditions: 2 hours incubation in Krebs-Henseleit bicarbonate buffer, mean ± SD; for Decomposition Rate of Muscle Plasma Protein of Soleus Muscle, Tyrosine, Non-immobilized: non-immobilized leg
Procedure: As test animals, 13 female 9-week-old rats of Fischer 344 strain (purchased from SLC Inc.) were used. The rats were preliminarily bred for 3 days in a chamber in which the temperature was adjusted to 22° C. under a bright-dark cycle where 07:00 to 19:00 was the bright period, and access to water and feed was ad libitum. After the preliminary breeding, the rats were divided into two groups, and a control feed was given to a control group consisting of 7 rats while a feed comprising CDP-choline (manufactured by Kyowa Hakko Kogyo Co., Ltd.) having the composition shown in Table 1 (hereinafter referred to as a CDP-choline feed) was given to the other group consisting of 6 rats for one day. Then, the right hind limb of each rat was immobilized in plaster cast under anesthesia with pentobarbital, followed by further feeding for one week under the above conditions. Thereafter, the rats were subjected to analysis with regard to the items shown below. Weighed soleus muscle was pre-incubated for 30 minutes in a Krebs-Henseleit bicarbonate buffer under aeration with […]. The muscle was then transferred to fresh Krebs-Henseleit bicarbonate buffer, and incubated for 2 hours. The concentration of tyrosine in the buffer was measured, whereby the degradation rate of muscle plasma protein was calculated. The concentration of tyrosine was measured by the fluorescence method of […], et al. using 1-nitroso-2-naphthol [J. Lab. Clin. Med., 50, 733 (1957)] (excitation wavelength: 435 nm; fluorescence wavelength: 545 nm). In order to prepare a calibration curve, a 5 nmol/ml tyrosine solution prepared as a standard solution was appropriately diluted and the relationship between its concentration and fluorescence intensity was plotted. By using the calibration curve thus prepared, the concentration of tyrosine in the buffer tested was determined from its fluorescence intensity.

C2C12 cells = assay: Increase of intracellular protein in differentiated C2C12 cells (Methylene Blue method); assay type: cell-based, mouse; conditions: 3 days; for Increase Rate of Intracellular Protein: control d0 = 0, control d3 = 100
Procedure: C2C12 cells were purchased from Dainippon Pharmaceutical Co., Ltd. Culturing was carried out according to the method of Craig, et al. [Methods in Cell Biology, 52, 85 (1998)]. A medium for growth was prepared by addition of 50 ml of FBS (manufactured by Gibco; Cat. No. 10099-141) and 5 ml of penicillin-streptomycin (manufactured by Gibco; Cat. No. 15140-122) to 500 ml of D-MEM medium (manufactured by Gibco; Cat. No. 11885-084). A medium for differentiation was prepared by addition of 10 ml of inactivated horse serum (manufactured by Gibco; Cat. No. 26050-088) and 5 ml of penicillin-streptomycin to 500 ml of the D-MEM medium. C2C12 cells were seeded and cultured in a 75-cm^2 flask containing 15 ml of the medium for growth and were subcultured before reaching confluence. Culturing was carried out in a CO2 incubator under 5% CO2 concentration and 100% relative humidity. The cell suspension diluted to 5×10^4 cells/ml with the medium for growth was added to each well of type I collagen-coated 96-well plate (Iwaki; Cat. No. 4860-010) in an amount of 100 μl. After confirming that the growth was uniform, the medium was replaced by the differentiation medium. Myogenesis was confirmed under a microscope after culturing for 3 days, and then a CDP-choline-containing PBS (−) solution was added to the medium until its final concentration reached 1 mg/ml or 0.1 mg/ml, followed by further culturing. […] The amount of intracellular protein was measured according to the method of Oliver, et al. [Journal of Cell Science, 92, 513 (1989)]. […] After the solution was appropriately diluted, the absorption at 650 nm was measured using a microplate reader. To determine the rate of increase of intracellular protein, the value of the test group (group to which CDP-choline was added) after culturing for 3 days was calculated based on the value before addition of CDP-choline (do) taken as 0 and the concentration of intracellular protein in the control group (group to which no CDP-choline was added) after culturing for 3 days (d3) taken as 100.

Structure (SMILES): C[N+](C)(C)CCOP(=O)(O)OP(=O)([O-])OC[C@H]1O[C@@H](n2ccc(N)nc2=O)[C@H](O)[C@@H]1O [CDP-Choline, Cytidine diphosphate choline]
- Atrophy Rate (soleus muscle) (soleus muscle [1]; decrease of immobilized muscle wet weight relative to non-immobilized taken as 100): 21.0 ± 6.5%
- Wet Weight of Soleus Muscle, Immobilized (soleus muscle [1]): 61.0 ± 5.2 mg
- Wet Weight of Soleus Muscle, Immobilized (soleus muscle [1]; listed as CDP-choline): no difference in wet weight of muscle
- Wet Weight of Soleus Muscle per Body Weight, Immobilized (soleus muscle [1]): 0.428 ± 0.027 mg/g body weight
- Wet Weight of Soleus Muscle per Body Weight, Immobilized (soleus muscle [1]; listed as CDP-choline): no difference
- Wet Weight of Soleus Muscle, Non-immobilized (soleus muscle [1]): 77.2 ± 3.9 mg
- Wet Weight of Soleus Muscle, Non-immobilized (soleus muscle [1]; listed as CDP-choline): no difference in wet weight of muscle
- Wet Weight of Soleus Muscle per Body Weight, Non-immobilized (soleus muscle [1]): 0.542 ± 0.030 mg/g body weight
- Wet Weight of Soleus Muscle per Body Weight, Non-immobilized (soleus muscle [1]; listed as CDP-choline): no difference
- Atrophy Rate (plantar muscle) (plantar muscle): 15.8 ± 5.8%
- Atrophy Rate (plantar muscle) (plantar muscle; listed as CDP-choline): significantly lower
- Wet Weight of Plantar Muscle, Immobilized (plantar muscle; 1 wt % CDP-choline feed): 104.0 ± 2.7 mg
- Wet Weight of Plantar Muscle, Immobilized (plantar muscle; 1 wt % CDP-choline feed, listed as CDP-choline): significantly higher than the control group
- Wet Weight of Plantar Muscle per Body Weight, Immobilized (plantar muscle): 0.731 ± 0.029 mg/g body weight
- Wet Weight of Plantar Muscle per Body Weight, Immobilized (plantar muscle; listed as CDP-choline): significantly higher than the control group
- Wet Weight of Plantar Muscle, Non-immobilized (plantar muscle; non-immobilized leg, 1 wt % CDP-choline feed): 123.8 ± 7.4 mg
- Wet Weight of Plantar Muscle per Body Weight, Non-immobilized (plantar muscle; non-immobilized leg): 0.870 ± 0.052 mg/g body weight
- Protein Content of Soleus Muscle, Immobilized (soleus muscle [2]; immobilized leg): 128.4 ± 10.0 mg protein/g tissue
- Protein Content of Soleus Muscle, Non-immobilized (soleus muscle [2]): 173.2 ± 15.0 mg protein/g tissue
- Protein Content of Soleus Muscle, Non-immobilized (soleus muscle [2]; listed as CDP-choline): significantly higher than the control group
- Decomposition Rate of Muscle Plasma Protein of Soleus Muscle, Tyrosine, Immobilized (soleus muscle [3]; immobilized leg): 322.1 ± 98.0 nmol/g tissue/2 hours
- Decomposition Rate of Muscle Plasma Protein of Soleus Muscle, Tyrosine, Non-immobilized (soleus muscle [3]): 135.5 ± 50.1 nmol/g tissue/2 hours
- Decomposition Rate of Muscle Plasma Protein of Soleus Muscle, Tyrosine, Non-immobilized (soleus muscle [3]; listed as CDP-choline): significantly lower than the control group
- Increase Rate of Intracellular Protein (C2C12 cells; CDP-choline 0.1 mg/ml): 134
- Increase Rate of Intracellular Protein (C2C12 cells; CDP-choline 1 mg/ml): 141
- Amount of intracellular protein in C2C12 cells (C2C12 cells; CDP-choline 0.1 and 1 mg/ml): increased in a CDP-choline concentration dependent manner
